Results from PubChem BioAssay (NCI).
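How tested: cells in 96-well plates exposed to compound for 48 hours at five concentrations. GI50 marks 50% less growth. TGI: total growth inhibition.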

Assays:
Experiment in all cases: DTP human tumour cell line panel, 48 h
CAKI-1 renal = test system: CAKI-1 renal
HT29 colon = test system: HT29 colon
M14 melanoma = test system: M14 melanoma
MALME-3M melanoma = test system: MALME-3M melanoma
NCI-H522 lung = test system: NCI-H522 lung
OVCAR-3 ovarian = test system: OVCAR-3 ovarian
OVCAR-4 ovarian = test system: OVCAR-4 ovarian
OVCAR-8 ovarian = test system: OVCAR-8 ovarian
SN12C renal = test system: SN12C renal
DU-145 prostate = test system: DU-145 prostate

SMILES	TGI (CAKI-1 renal)	TGI (HT29 colon)	TGI (M14 melanoma)	TGI (MALME-3M melanoma)	TGI (NCI-H522 lung)	TGI (OVCAR-3 ovarian)	TGI (OVCAR-4 ovarian)	TGI (OVCAR-8 ovarian)	TGI (SN12C renal)	GI50 (CAKI-1 renal)	GI50 (DU-145 prostate)	TGI (DU-145 prostate)	GI50 (HT29 colon)	GI50 (M14 melanoma)	GI50 (MALME-3M melanoma)	GI50 (OVCAR-3 ovarian)	GI50 (OVCAR-4 ovarian)	GI50 (OVCAR-8 ovarian)	GI50 (SN12C renal)	GI50 (NCI-H522 lung)
COc1ccc2[nH]c3c(cnn4cnnc34)c2c1	> 100 µM	> 100 µM	> 100 µM	> 100 µM	> 100 µM	> 100 µM	> 100 µM	> 100 µM	> 100 µM											
COc1cc(C)cc2c1OC(c1ccccc1)CC2=O (stereo unspecified)	> 100 µM	> 100 µM	> 100 µM	> 100 µM		> 100 µM	> 100 µM	> 100 µM	> 100 µM	> 100 µM	> 100 µM	> 100 µM	> 100 µM	> 100 µM	> 100 µM	> 100 µM	> 100 µM	> 100 µM	> 100 µM	
Cc1c(C(=O)/C=C/c2ccc(O)cc2)nnn1-c1ccnc2c(C(F)(F)F)cccc12	> 100 µM	30.1 µM	> 100 µM	75.3 µM	> 100 µM	> 100 µM		> 100 µM	> 100 µM	28.6 µM	30.1 µM	> 100 µM	3.36 µM	49.6 µM	12.2 µM	19.5 µM		10 µM	18 µM	6.2 µM
O=c1cc/c(=N\Nc2ccccc2)c(=O)/c1=N/Nc1ccccc1	> 50 µM	> 50 µM	> 50 µM	> 50 µM		> 50 µM	> 50 µM	> 50 µM	> 50 µM	> 50 µM	> 50 µM	> 50 µM	> 50 µM	> 50 µM	> 50 µM	> 50 µM	> 50 µM	> 50 µM	> 50 µM	
CSC(=S)N(C)c1nc(=[N+](C)C)ss1	> 100 µM	> 100 µM	> 100 µM	> 100 µM	> 100 µM		> 100 µM	> 100 µM	> 100 µM											
CCCCCCn1c(-c2ccc(C(=O)O/N=C(\N)c3ccc(OC)cc3)cc2)nc(-c2ccccc2)c1-c1ccccc1	2.19 µM	> 100 µM		3.55 µM	3.72 µM			6.47 µM	3.26 µM	0.997 µM	1.02 µM	2.22 µM	2.67 µM		1.75 µM			2.21 µM	1.62 µM	1.74 µM
C/C(=N\NC(N)=S)c1ccc(/C(C)=N/NC(N)=S)cc1		> 100 µM	> 100 µM	> 100 µM	> 100 µM	> 100 µM		> 100 µM	> 100 µM											
CCc1ccccc1NC(=O)CCc1nc(=S)[nH][nH]1	> 100 µM	> 100 µM	> 100 µM	> 100 µM	> 100 µM	> 100 µM	> 100 µM	> 100 µM	> 100 µM											
COc1ccc(C2(CN(C)C)COc3cc(OC)c(OC)cc3C2=O)cc1OC (stereo unspecified)	> 100 µM	> 100 µM	> 100 µM	> 100 µM	> 100 µM	> 100 µM	> 100 µM	> 100 µM	> 100 µM											
CN1C(c2ccccc2)CC(=Nc2ccccc2)CC1c1ccccc1 (stereo unspecified)	42.3 µM	34.2 µM	27.9 µM	22.9 µM	17.4 µM	24 µM	31 µM	20.6 µM												
[N-]=[N+]=Nc1ncc(-c2ccc(C(F)(F)F)cc2)c(NC2CCCCCC2)n1	> 10 µM	> 10 µM	> 10 µM	> 10 µM		> 10 µM	> 10 µM	> 10 µM	> 10 µM	> 10 µM	> 10 µM	> 10 µM	> 10 µM	> 10 µM	> 10 µM	> 10 µM	> 10 µM	> 10 µM	> 10 µM	
O=[N+]([O-])c1ccc(Cc2nc3ccccc3s2)cc1	> 100 µM	> 100 µM	> 100 µM	> 100 µM	> 100 µM	> 100 µM	> 100 µM	> 100 µM	> 100 µM											
O=C(CC(=O)Nc1ccc(Cl)cc1)NNCC(=O)Nc1nc(-c2ccccc2)cs1		> 100 µM	> 100 µM		> 100 µM	> 100 µM	> 100 µM	> 100 µM	> 100 µM											
CCCCCCCCCCCCCCCCC(C(=O)O)C(O)(CC(=O)O)C(=O)O (stereo unspecified)	46.3 µM	45.4 µM	47.7 µM	> 100 µM		35.8 µM		> 100 µM	53.6 µM			> 100 µM								
C/C(=N\NC(N)=S)c1ccc2c(c1)OCO2	> 100 µM	> 100 µM	> 100 µM	> 100 µM	> 100 µM	> 100 µM		> 100 µM	> 100 µM											
CCOC(=O)C1CCC/C1=N\N=C(N)N (stereo unspecified) (tested in a mixture with another compound)		> 100 µM	> 100 µM	> 100 µM	> 100 µM	> 100 µM	> 100 µM	> 100 µM	> 100 µM			> 100 µM								
N=C(c1ccccc1)N1CCCCC1	> 100 µM	> 100 µM	> 100 µM	> 100 µM	> 100 µM		> 100 µM	> 100 µM	> 100 µM											
COC(=O)c1nc(-c2ccc(Cl)c(Cl)c2)nc2ccccc12	> 100 µM	> 100 µM	> 100 µM	> 100 µM	> 100 µM	> 100 µM		> 100 µM	> 100 µM											
C/C(=N\NC(=S)N(C)C)c1ncc[nH]1		> 100 µM	5.69 µM	21.6 µM	9.01 µM	> 100 µM		> 100 µM	66.5 µM											
OCCN(CO)CN(CN(CO)CCO)c1nc(N(CN(CO)CCO)CN(CO)CCO)nc(N(CN(CO)CCO)CN(CO)CCO)n1		15.2 ng/mL	2.91 ng/mL				4.8 ng/mL	5500 ng/mL	6.06 ng/mL		1.9 ng/mL	78.3 ng/mL	0.911 ng/mL	1.21 ng/mL			1.7 ng/mL	1.54 ng/mL	1.49 ng/mL	
O=C1CCC(c2nc3ccccc3o2)C(=O)N1 (stereo unspecified)	> 100 µM	> 100 µM	> 100 µM	> 100 µM	> 100 µM	> 100 µM	> 100 µM	> 100 µM	> 100 µM											
